PubChem BioAssay (NCI)
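How tested: cells in 96-well plates exposed to compound for 48 hours at five concentrations. GI50 marks 50% less growth. TGI denotes the concentration required for complete inhibition of growth.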

How the values were obtained:
Assay in all cases: DTP human tumour cell line panel, 48 h
786-0 renal = tested on: 786-0 renal
A498 renal = tested on: A498 renal
A549 NSCLC = tested on: A549 NSCLC
ACHN renal = tested on: ACHN renal
BT-549 breast = tested on: BT-549 breast
CAKI-1 renal = tested on: CAKI-1 renal
CCRF-CEM leukemia = tested on: CCRF-CEM leukemia
COLO 205 colon = tested on: COLO 205 colon
DU-145 prostate = tested on: DU-145 prostate
EKVX NSCLC = tested on: EKVX NSCLC
HCC-2998 colon = tested on: HCC-2998 colon
HCT-116 colon = tested on: HCT-116 colon
HCT-15 colon = tested on: HCT-15 colon
HL-60(TB) leukemia = tested on: HL-60(TB) leukemia
HOP-62 NSCLC = tested on: HOP-62 NSCLC
HOP-92 NSCLC = tested on: HOP-92 NSCLC
HS 578T breast = tested on: HS 578T breast
HT29 colon = tested on: HT29 colon
IGROV1 ovarian = tested on: IGROV1 ovarian
K-562 leukemia = tested on: K-562 leukemia
KM12 colon = tested on: KM12 colon
LOX IMVI melanoma = tested on: LOX IMVI melanoma
M14 melanoma = tested on: M14 melanoma
MALME-3M melanoma = tested on: MALME-3M melanoma
MCF7 breast = tested on: MCF7 breast
MDA-MB-231 breast = tested on: MDA-MB-231 breast
MDA-MB-435 = tested on: MDA-MB-435
MOLT-4 leukemia = tested on: MOLT-4 leukemia
NCI-H226 lung = tested on: NCI-H226 lung
NCI-H23 lung = tested on: NCI-H23 lung
NCI-H460 lung = tested on: NCI-H460 lung
NCI-H522 lung = tested on: NCI-H522 lung
NCI/ADR-RES ovarian = tested on: NCI/ADR-RES ovarian
OVCAR-3 ovarian = tested on: OVCAR-3 ovarian
OVCAR-4 ovarian = tested on: OVCAR-4 ovarian
OVCAR-5 ovarian = tested on: OVCAR-5 ovarian
OVCAR-8 ovarian = tested on: OVCAR-8 ovarian
PC-3 prostate = tested on: PC-3 prostate
RPMI-8226 leukemia = tested on: RPMI-8226 leukemia
RXF 393 renal = tested on: RXF 393 renal
SF-268 CNS = tested on: SF-268 CNS
SF-295 CNS = tested on: SF-295 CNS
SF-539 CNS = tested on: SF-539 CNS
SK-MEL-2 melanoma = tested on: SK-MEL-2 melanoma
SK-MEL-28 melanoma = tested on: SK-MEL-28 melanoma
SK-MEL-5 melanoma = tested on: SK-MEL-5 melanoma
SK-OV-3 ovarian = tested on: SK-OV-3 ovarian
SN12C renal = tested on: SN12C renal
SNB-19 CNS = tested on: SNB-19 CNS
SNB-75 CNS = tested on: SNB-75 CNS
SR leukemia = tested on: SR leukemia
SW-620 colon = tested on: SW-620 colon
T-47D breast = tested on: T-47D breast
TK-10 renal = tested on: TK-10 renal
U251 CNS = tested on: U251 CNS
UACC-257 melanoma = tested on: UACC-257 melanoma
UACC-62 melanoma = tested on: UACC-62 melanoma
UO-31 renal = tested on: UO-31 renal

Q: Which results are given for CCCCCCNC(=O)Oc1ccc(/C(=C(\C)c2ccccc2)c2ccc(OCCN(CC)CC)cc2)cc1?
A: GI50 (786-0 renal): 1.5 µM; TGI (786-0 renal): 5.33 µM; GI50 (A498 renal): 6.93 µM; TGI (A498 renal): 13.6 µM; GI50 (A549 NSCLC): 5.11 µM; TGI (A549 NSCLC): 11.4 µM; GI50 (ACHN renal): 5.99 µM; TGI (ACHN renal): 12.2 µM; GI50 (BT-549 breast): 6.05 µM; TGI (BT-549 breast): 12.5 µM; GI50 (CAKI-1 renal): 2.74 µM; TGI (CAKI-1 renal): 8.92 µM; GI50 (CCRF-CEM leukemia): 2.22 µM; TGI (CCRF-CEM leukemia): 11.6 µM; GI50 (COLO 205 colon): 1.17 µM; TGI (COLO 205 colon): 2.49 µM; GI50 (DU-145 prostate): 7.45 µM; TGI (DU-145 prostate): 14.6 µM; GI50 (EKVX NSCLC): 6.02 µM; TGI (EKVX NSCLC): 12.5 µM; GI50 (HCC-2998 colon): 2.33 µM; TGI (HCC-2998 colon): 8.16 µM; GI50 (HCT-116 colon): 2.08 µM; TGI (HCT-116 colon): 7.39 µM; GI50 (HCT-15 colon): 1.31 µM; TGI (HCT-15 colon): 3.68 µM; GI50 (HL-60(TB) leukemia): 0.524 µM; TGI (HL-60(TB) leukemia): 5.2 µM; GI50 (HOP-62 NSCLC): 6.51 µM; TGI (HOP-62 NSCLC): 13.4 µM; GI50 (HOP-92 NSCLC): 2.59 µM; TGI (HOP-92 NSCLC): 9.16 µM; GI50 (HS 578T breast): 2.92 µM; TGI (HS 578T breast): 11.7 µM; GI50 (HT29 colon): 1.17 µM; TGI (HT29 colon): 2.9 µM; GI50 (IGROV1 ovarian): 3.11 µM; TGI (IGROV1 ovarian): 9.82 µM; GI50 (K-562 leukemia): 1.36 µM; TGI (K-562 leukemia): 5.31 µM; GI50 (KM12 colon): 2.84 µM; TGI (KM12 colon): 10 µM; GI50 (LOX IMVI melanoma): 1.1 µM; TGI (LOX IMVI melanoma): 2.96 µM; GI50 (M14 melanoma): 1.11 µM; TGI (M14 melanoma): 2.38 µM; GI50 (MALME-3M melanoma): 3.59 µM; TGI (MALME-3M melanoma): 10.1 µM; GI50 (MCF7 breast): 0.602 µM; TGI (MCF7 breast): 5.47 µM; GI50 (MDA-MB-231 breast): 5.08 µM; TGI (MDA-MB-231 breast): 11.4 µM; GI50 (MDA-MB-435): 3.57 µM; TGI (MDA-MB-435): 10.1 µM; GI50 (MOLT-4 leukemia): 1.78 µM; TGI (MOLT-4 leukemia): 7.79 µM; GI50 (NCI-H226 lung): 6.67 µM; TGI (NCI-H226 lung): 14.3 µM; GI50 (NCI-H23 lung): 5.17 µM; TGI (NCI-H23 lung): 11.6 µM; GI50 (NCI-H460 lung): 1.4 µM; TGI (NCI-H460 lung): 3.62 µM; GI50 (NCI-H522 lung): 3.48 µM; TGI (NCI-H522 lung): 10.6 µM; GI50 (NCI/ADR-RES ovarian): 5.47 µM; TGI (NCI/ADR-RES ovarian): 11.9 µM; GI50 (OVCAR-3 ovarian): 4.73 µM; TGI (OVCAR-3 ovarian): 11.6 µM; GI50 (OVCAR-4 ovarian): 5.46 µM; TGI (OVCAR-4 ovarian): 11.9 µM; GI50 (OVCAR-5 ovarian): 6.71 µM; TGI (OVCAR-5 ovarian): 13.2 µM; GI50 (OVCAR-8 ovarian): 6.02 µM; TGI (OVCAR-8 ovarian): 12.9 µM; GI50 (PC-3 prostate): 2.81 µM; TGI (PC-3 prostate): 9.21 µM; GI50 (RPMI-8226 leukemia): 2.32 µM; TGI (RPMI-8226 leukemia): 9.71 µM; GI50 (RXF 393 renal): 2.35 µM; TGI (RXF 393 renal): 8.16 µM; GI50 (SF-268 CNS): 5.54 µM; TGI (SF-268 CNS): 13.1 µM; GI50 (SF-295 CNS): 2.11 µM; TGI (SF-295 CNS): 7.38 µM; GI50 (SF-539 CNS): 3.47 µM; TGI (SF-539 CNS): 9.79 µM; GI50 (SK-MEL-2 melanoma): 7.5 µM; TGI (SK-MEL-2 melanoma): 14.8 µM; GI50 (SK-MEL-28 melanoma): 3.12 µM; TGI (SK-MEL-28 melanoma): 9.3 µM; GI50 (SK-MEL-5 melanoma): 3.01 µM; TGI (SK-MEL-5 melanoma): 9.26 µM; GI50 (SK-OV-3 ovarian): 8.33 µM; TGI (SK-OV-3 ovarian): 15.2 µM; GI50 (SN12C renal): 4.93 µM; TGI (SN12C renal): 10.9 µM; GI50 (SNB-19 CNS): 4.89 µM; TGI (SNB-19 CNS): 11.1 µM; GI50 (SNB-75 CNS): 3.54 µM; TGI (SNB-75 CNS): 10.5 µM; GI50 (SR leukemia): 1.09 µM; TGI (SR leukemia): 3.18 µM; GI50 (SW-620 colon): 1.3 µM; TGI (SW-620 colon): 3.26 µM; GI50 (T-47D breast): 1.07 µM; TGI (T-47D breast): 8.17 µM; GI50 (TK-10 renal): 6.74 µM; TGI (TK-10 renal): 13.5 µM; GI50 (U251 CNS): 2.41 µM; TGI (U251 CNS): 8.15 µM; GI50 (UACC-257 melanoma): 1.21 µM; TGI (UACC-257 melanoma): 3.17 µM; GI50 (UACC-62 melanoma): 2.05 µM; TGI (UACC-62 melanoma): 7.4 µM; GI50 (UO-31 renal): 1.51 µM; TGI (UO-31 renal): 6.09 µM
